These results are taken from publication PMC2997884 (Molecular pharmaceutics, 2010).

The Km is the substrate concentration at which the rate is half of its maximum. For orientation: kcat means the number of substrate molecules converted per active site and unit of time at saturation. Usually half-life stands for the time in which the quantity being followed falls by half.

Series [1] deals with chymotrypsin. The conditions noted are these: N-acetyltryptophanyl-X substrates of chymotrypsin; ref Bender and Kezdy[14]; cited from earlier work.
Series [2] has as its target T1, hVACVase (Homo sapiens, UniProt Q86WA6).
T1 sequence (Q86WA6 38-291): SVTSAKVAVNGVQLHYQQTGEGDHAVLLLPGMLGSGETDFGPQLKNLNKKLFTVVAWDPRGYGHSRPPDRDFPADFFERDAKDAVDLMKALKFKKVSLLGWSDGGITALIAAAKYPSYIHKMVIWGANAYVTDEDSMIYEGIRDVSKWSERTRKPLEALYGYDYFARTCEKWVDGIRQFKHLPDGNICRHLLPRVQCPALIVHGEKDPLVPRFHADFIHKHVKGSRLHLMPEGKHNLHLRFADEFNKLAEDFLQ
The conditions noted are these: cited from earlier work; for specific activity: hVACVase substrate; for Km / Vmax: hVACVase.

A short description of series [3]: Hydrolysis in pH 7.4 HEPES buffer. The series is classed as physicochemical. Particulars: for t1/2 (estimated half-life): pH 7.4 HEPES buffer, 37 °C, mean ± SEM, esters n=3, Val-3-APG n=1 (up to 800 h).
Series [4] addresses T1, hVACVase. The conditions noted are these: hVACVase-mediated hydrolysis; previously published; ref Sun et al.[12]; cited from earlier work.
For series [5], the target named is T1, hVACVase. Briefly: hVACVase-mediated hydrolysis. Particulars: 50 mM HEPES pH 7.4, 37°C, 6×His-tagged hVACVase for Val-3-APG; for kcat: calculated from Vmax/[enzyme]0; for Km / Vmax: mean ± SEM, Phe-OMe n=2, others n=3.

Read-outs that look alike come from different tables or passages of the source. Where a SMILES comes first, the peptide text is derived from it. [ ]: non-standard residue; d: D form. The star is where a group is joined. ξ: configuration not given here. pNA = O=[N+]([O-])c1ccc(N*)cc1; ξP = O=C(O)C1CCCN1

`CC(=O)N[C@@H](Cc1c[nH]c2ccccc12)C(N)=O` [-NH2]: in series [1], the Km is 5000 µM and the turnover number (kcat) was 0.0006 s⁻¹.
Consider `CCOC(=O)[C@H](Cc1c[nH]c2ccccc12)NC(C)=O` [-OEt], for which, in series [1], the Km is 97 µM and the kcat is 0.448 s⁻¹.
Take `COC(=O)[C@H](Cc1c[nH]c2ccccc12)NC(C)=O` [-OMe]: in series [1], the Km is 95 µM and the kcat is 0.462 s⁻¹.
Consider `CC(=O)N[C@@H](Cc1c[nH]c2ccccc12)C(=O)Oc1ccc([N+](=O)[O-])cc1` [-OPNP], for which, in series [1], the Km was 2 µM and the kcat was 0.508 s⁻¹.
On to `NCC(=O)N1CCCC1C(=O)Nc1ccc([N+](=O)[O-])cc1` (stereo not drawn) [Gly-Pro-p-NA] (H-Gly-[ξP]-pNA), for which, in series [2], the “hydrolytic activity of hVACVase toward amides” value (from here on “hydrolytic activity”) is recorded as “does not exhibit significant hydrolytic activity”.
Take `CC(C)C[C@H](N)C(=O)Nc1ccc([N+](=O)[O-])cc1` [Leu-p-NA]: in series [2], the “hydrolytic activity” value is given as “does not exhibit significant hydrolytic activity”.
`NCCCC[C@H](N)C(=O)Nc1ccc([N+](=O)[O-])cc1` [Lys-p-NA]: the “hydrolytic activity” value in series [2] is on record as “does not exhibit significant hydrolytic activity”.
Consider `N=C(N)Nc1cccc(COC(=O)[C@@H](N)Cc2ccccc2)c1` [Phe-3-HPG], for which the “t1/2 (estimated half-life)” value in series [3] is given as 230.0 ± 6.5 min. Also, in series [4], the Km is 207 ± 16 µM, the Vmax was 718 ± 16 nmol/min/µg and the kcat was 345 ± 8 s⁻¹.
In the case of `Cl.N[C@@H](Cc1ccccc1)C(=O)OCc1ccccc1` [Phe-OBn, L-phenylalanine benzyl ester hydrochloride], in series [2], the specific activity is 358.3 units/mg. The “t1/2 (estimated half-life)” value in series [3] was 365.0 ± 9.4 min. Further, in series [5], the kcat is 395 ± 26 s⁻¹, the Km came out at 99 ± 26 µM and the Vmax stood at 822 ± 54 nmol/min/µg.
Regarding `CCOC(=O)[C@@H](N)Cc1ccccc1.Cl` [Phe-OEt, L-phenylalanine ethyl ester hydrochloride], in series [2], the specific activity is 75.3 units/mg. Besides, the “t1/2 (estimated half-life)” value in series [3] is listed as 1006.4 ± 26.0 min. Further, in series [5], the kcat was 93 ± 4 s⁻¹, the Km stood at 6700 ± 560 µM and the Vmax came out at 193 ± 8 nmol/min/µg.
`N[C@@H](Cc1ccccc1)C(=O)Nc1ccc([N+](=O)[O-])cc1` [Phe-p-NA]: the “hydrolytic activity” value in series [2] is “does not exhibit significant hydrolytic activity”.
On to `O=C(Nc1ccc([N+](=O)[O-])cc1)[C@@H]1CCCN1` [Pro-p-NA], for which the “hydrolytic activity” value in series [2] is on record as “does not exhibit significant hydrolytic activity”.
For `CC(C)C(N)C(=O)OCc1cccc(NC(=N)N)c1` (stereo not shown) [Val-3-HPG], in series [3], the “t1/2 (estimated half-life)” value is on record as 486.9 ± 6.6 min. In series [4], the Michaelis-Menten constant (Km) is 46 ± 5 µM, the Vmax is 321 ± 9 nmol/min/µg and the kcat is 154 ± 4 s⁻¹.
For the molecule `CC(C)[C@H](N)C(=O)OCc1ccccc1.Cl` [Val-OBn, L-valine benzyl ester hydrochloride], the “t1/2 (estimated half-life)” value in series [3] is 857.8 ± 7.6 min. Also, in series [5], the kcat was 60 ± 3 s⁻¹, the Km turned out to be 60 ± 15 µM and the Vmax is 125 ± 7 nmol/min/µg.
`CC(C)[C@H](N)C(=O)Nc1ccc([N+](=O)[O-])cc1` [Val-p-NA]: the “hydrolytic activity” value in series [2] is given as “does not exhibit significant hydrolytic activity”.
In the case of `CC(C)(C)OC(=O)[C@@H](N)Cc1ccccc1` [phenylalanine t-butyl ester], the “hVACVase substrate or not” value in series [2] is given as “not a substrate”.
With `CC(C)[C@H](N)C(=O)OCCOCn1cnc2c(=O)[nH]c(N)nc21` [valacyclovir], in series [2], the Km was 0.19 mM. In series [3] (HEPES buffer, pH 7.4), the half-life was determined as 742.1 ± 5.5 min. Also, in series [4], the Km is 68 ± 4 µM, the Vmax is 120 ± 2 nmol/min/µg and the kcat was 58 ± 1 s⁻¹.
`CC(C)[C@H](N)C(=O)OCC(CO)OCn1cnc2c(=O)nc(N)[nH]c21` (stereo partly shown) [valganciclovir]: in series [2], the Km was 1.9 mM.
As for `CC(C)C(N)C(=O)OC1CC(n2cc(F)c(=O)[nH]c2=O)OC1CO` (stereo not shown) [valine 3’-floxuridine ester], in series [2], the Vmax was 33 nmol/min/µg.
`CC(C)C(N)C(=O)OCC1OC(n2cc(F)c(=O)[nH]c2=O)CC1O` (stereo not shown) [valine 5’-floxuridine]: the Vmax in series [2] was 148 nmol/min/µg.
Regarding `Br.CC(C)[C@H](N)C(=O)OCc1ccc([N+](=O)[O-])cc1` [valine p-nitrobenzyl ester, L-Valine p-nitrobenzyl ester hydrobromide], the “t1/2 (estimated half-life)” value in series [3] is given as 412.3 ± 11.9 min. Besides, in series [5], the kcat was 130 ± 2 s⁻¹, the Km came out at 14 ± 1 µM and the Vmax was 272 ± 3 nmol/min/µg.
